# Measurements published in US5186941A (priority 1991, dated 1993).
# Legend:
# [1] = rat, in vivo
# [2] = rat, in vivo; remark: listed apart in the source
compound,measurement,setting,value
"C[n+]1ccccc1/C=N/O [2-PAMCl, 2-pralidoxime chloride]",duration of therapeutic plasma drug level (4.0 μg/ml plasma),[1],21/4
same,time until blood concentration drops below therapeutic level (TL),[1],2 to 3 h
same,"death of all animals, time after injection",[2],≤ 30 min
